In patent publication US20220054515A1, “COMPOSITION AND METHOD FOR PROMOTING INTESTINAL BARRIER HEALING” (Glycom A/S, priority 2018, published 2022):

Biological target: T1, GPR35 (Homo sapiens, UniProt Q9HC97)
T1 construct: host or cells: PathHunter GPR35 cell line
Assay: GPR35 activation, PathHunter β-Arrestin assay (DiscoverX)
Assay type: cell-based
Details: β-arrestin recruitment; for activation of GPR35 (result in words): highest concentration tested 10 mM; for EC50: β-Gal enzyme fragment complementation, chemiluminescence, highest concentration 10 mM, 3× dilutions, duplicate
Procedure: Six human milk oligosaccharides (LNnT, LNT, 2′-FL, DFL, 6′-SL and 3′-SL) were screened for their ability to activate the GPR35 receptor in an in vitro assay. The screening was conducted by DiscoverX (Fremont, Calif., USA) using the PathHunter β-Arresin assay. This assay monitored the activation of GPR35 expressed in cultured cells, using Enzyme Fragment Complementation with β-galactosidase (β-Gal) as the functional reporter. […] EA was fused to […]. When the GPR35 is activated and β-Arrestin is recruited to the receptor, PK and EA complementation occurs, restoring β-Gal activity, which was measured using chemiluminescent Detection Reagents.
The GPR35 cell line was expanded from frozen stocks and cultured according to standard procedures. Cells were seeded in a total volume of 20 μl into white walled, 384-well microplates and incubated at 37° C. for the appropriate time prior to testing. All of the testings were done in duplicate.
HMO samples were shipped to DiscoverX as concentrated stocks in Phosphate Buffered saline. On the test day, a 5× compound working intermediate was prepared in PBS. Five μl of 5× sample were added to cells and incubated at room temperature for 3 to 5 hours.
Assay signal was generated through a single addition of 12.5 μl (50 v/v %) of PathHunter Detection reagent cocktail, followed by one-hour incubation at room temperature. Microplates were read following signal generation with a PerkinElmer Envision™ instrument for chemiluminescent signal detection. Zaprinast (which is known to be an activator of GPR35) was used as positive control. Dose-responses were generated by iterative 3× dilutions of the highest concentration tested (10 mM).

T1 sequence (Q9HC97 whole entry): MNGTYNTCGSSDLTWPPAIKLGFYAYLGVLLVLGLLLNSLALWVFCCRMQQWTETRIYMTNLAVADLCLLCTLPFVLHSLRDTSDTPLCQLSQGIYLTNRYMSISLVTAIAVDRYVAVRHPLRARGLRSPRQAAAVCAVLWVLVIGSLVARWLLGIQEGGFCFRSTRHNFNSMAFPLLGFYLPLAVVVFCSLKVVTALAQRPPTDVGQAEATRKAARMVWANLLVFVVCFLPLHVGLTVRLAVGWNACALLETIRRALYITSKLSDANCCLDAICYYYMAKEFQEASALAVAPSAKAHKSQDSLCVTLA

| Structure (SMILES) | activation of GPR35 (result in words) | EC50 |
| --- | --- | --- |
| CC(=O)N[C@H]1[C@H]([C@H](O)[C@H](O)CO)O[C@@](O[C@H]2[C@@H](O)[C@@H](CO)O[C@@H](O[C@H]3[C@H](O)[C@@H](O)C(O)O[C@@H]3CO)[C@@H]2O)(C(=O)O)C[C@@H]1O (some centres unmarked) [3′-SL, 3′-sialyllactose] | No activation |  |
| CC(=O)N[C@H]1[C@H](O[C@H]2[C@@H](O)[C@@H](CO)O[C@@H](O[C@H]3[C@H](O)[C@@H](O)C(O)O[C@@H]3CO)[C@@H]2O)O[C@H](CO)[C@@H](O)[C@@H]1O[C@@H]1O[C@H](CO)[C@H](O)[C@H](O)[C@H]1O (some centres unmarked) [LNT, lacto-N-tetraose] |  | 4.5 mM |
| CC(=O)N[C@H]1[C@H](O[C@H]2[C@@H](O)[C@@H](CO)O[C@@H](O[C@H]3[C@H](O)[C@@H](O)C(O)O[C@@H]3CO)[C@@H]2O)O[C@H](CO)[C@@H](O[C@@H]2O[C@H](CO)[C@H](O)[C@H](O)[C@H]2O)[C@@H]1O (mixture of isomers) [LNnT, lacto-N-neotetraose] | No activation |  |
| C[C@@H]1O[C@@H](O[C@H]2[C@H](O[C@H]3[C@H](O[C@@H]4O[C@@H](C)[C@@H](O)[C@@H](O)[C@@H]4O)[C@@H](O)C(O)O[C@@H]3CO)O[C@H](CO)[C@H](O)[C@@H]2O)[C@@H](O)[C@H](O)[C@@H]1O (some centres unmarked) [DFL, difucosyllactose] | No activation |  |
| CC(=O)N[C@H]1[C@H]([C@H](O)[C@H](O)CO)O[C@@](OC[C@H]2O[C@@H](O[C@H]3[C@H](O)[C@@H](O)[C@H](O)O[C@@H]3CO)[C@H](O)[C@@H](O)[C@H]2O)(C(=O)O)C[C@@H]1O [6′-SL, 6′-sialyllactose] |  | 6.5 mM |
